In the CheMixHub viscosity set:
“And” between values parts separate entries of the source, which are not always exact repeats. Equal entries are not always repeated.

Test: xn = mol fraction of the nth substance listed

CCCCOC(C)=O + C1CCCCC1
viscosity [mPa·s], 101 kPa
Details	298.15 K	308.15 K
x1 = 0.0561	0.854	0.723
x1 = 0.156	0.801	0.676
x1 = 0.2818	0.749	0.631
x1 = 0.4867	0.693	0.585
x1 = 0.4963	0.691	0.584
x1 = 0.5327	0.685	0.579
x1 = 0.5738	0.678	0.575
x1 = 0.6816	0.667	0.568
x1 = 0.7552	0.663	0.568
x1 = 0.8686	0.663	0.575
x1 = 0.9568	0.669	0.586

CCCN + C1CCCCC1
viscosity, 101 kPa
Details	x1 = 0.00761	x1 = 0.01688	x1 = 0.02821	x1 = 0.03652	x1 = 0.04831	x1 = 0.05697	x1 = 0.06516	x1 = 0.07467	x1 = 0.08588
303.15 K	0.8113 mPa·s	0.8039 mPa·s	0.7953 mPa·s	0.789 mPa·s	0.7803 mPa·s	0.7736 mPa·s	0.7669 mPa·s	0.7583 mPa·s	0.7506 mPa·s
313.15 K	0.7093 mPa·s and 0.6999 mPa·s	0.6903 mPa·s	0.6849 mPa·s	0.6772 mPa·s	0.67 mPa·s	0.6638 mPa·s	0.6564 mPa·s	0.6488 mPa·s	–

Oc1ccccc1Cl + C1CCCCC1
viscosity [mPa·s], 303.15 K
Details	x2 = 0.1078	x2 = 0.2025	x2 = 0.3072	x2 = 0.4048	x2 = 0.6046	x2 = 0.6564	x2 = 0.7542	x2 = 0.8969
101 kPa	2.275	1.996	1.622	1.331	1.032	0.981	0.881	0.795
101.33 kPa	2.275	1.996	1.622	1.331	1.032	0.981	0.881	0.794

CCCCOC(C)=O + C1COCCO1
303.15 K, 101.3 kPa
Details	viscosity [mPa·s]
x2 = 0.1002	0.6618
x2 = 0.1988	0.682
x2 = 0.2997	0.7051
x2 = 0.3963	0.7333
x2 = 0.4977	0.7684
x2 = 0.6024	0.809
x2 = 0.7009	0.859
x2 = 0.7968	0.9174
x2 = 0.9016	0.9976

Oc1ccccc1Cl + C1COCCO1
101 kPa
Details	viscosity [mPa·s]
298.15 K, x1 = 0.2	1.965
298.15 K, x1 = 0.4	3.235
298.15 K, x1 = 0.6	5.018
298.15 K, x1 = 0.8	5.556
308.15 K, x2 = 0.1	2.996
308.15 K, x2 = 0.2	3.489
308.15 K, x2 = 0.4	3.32
308.15 K, x2 = 0.5	2.866
308.15 K, x2 = 0.6	2.311
308.15 K, x2 = 0.7	1.849
308.15 K, x2 = 0.8	1.478
308.15 K, x2 = 0.9	1.182

CCCN + C=C(C)C(=O)OC
303.15 K, 101 kPa
Details	viscosity [mPa·s]
x2 = 0.1506	0.382
x2 = 0.3776	0.4355
x2 = 0.5053	0.4623
x2 = 0.6058	0.4809
x2 = 0.8285	0.5081

CCCCOC(C)=O + CC#N
303.15 K, 101.33 kPa
Details	viscosity [mPa·s]
x2 = 0.0981	0.6208
x2 = 0.2003	0.5981
x2 = 0.3003	0.5737
x2 = 0.403	0.5485
x2 = 0.5026	0.5195
x2 = 0.5972	0.4884
x2 = 0.6977	0.4463
x2 = 0.7987	0.4071
x2 = 0.8985	0.3669

CCCOC(=O)c1ccccc1 + CC#N
viscosity [mPa·s], 101.33 kPa
Details	x1 = 0.127	x1 = 0.247	x1 = 0.362	x1 = 0.467	x1 = 0.567	x1 = 0.658	x1 = 0.748	x1 = 0.842	x1 = 0.928
293.15 K	0.439	0.48	0.544	0.614	0.755	0.879	1.113	1.522	2.048
303.15 K	0.397	0.43	0.484	0.54	0.654	0.749	0.929	1.237	1.609
313.15 K	0.362	0.386	0.431	0.479	0.57	0.652	0.786	1.025	1.307
323.15 K	0.326	0.346	0.386	0.424	0.499	0.564	0.67	0.853	1.075

Clc1ccccc1Cl + CC#N
308.15 K, 101 kPa
Details	viscosity [mPa·s]
x1 = 0.1003	0.3803
x1 = 0.2063	0.4569
x1 = 0.3069	0.5299
x1 = 0.4058	0.6077
x1 = 0.4918	0.676
x1 = 0.5925	0.7617
x1 = 0.6956	0.8443
x1 = 0.7945	0.9395
x1 = 0.9016	1.027

[O-][Cl+3]([O-])([O-])O + CC(=O)O
viscosity [mPa·s], 101 kPa
Details	x1 = 0.2029	x1 = 0.3254	x1 = 0.4484	x1 = 0.5117
293.15 K	0.2653	0.6193	0.4081	0.2388
308.15 K	0.1146	0.2603	0.1883	0.1226
323.15 K	–	0.1268	–	–

CC(C)c1ccccc1 + CC(C)(C)O
viscosity [mPa·s], 101 kPa
Details	x2 = 0.0995	x2 = 0.2007	x2 = 0.3001	x2 = 0.3998	x2 = 0.5009	x2 = 0.6007	x2 = 0.7002	x2 = 0.8005	x2 = 0.9002
303.15 K	0.6893	0.7128	0.7481	0.7954	0.8754	0.9692	1.129	1.415	1.874
308.15 K	0.6458	0.6665	0.6941	0.7344	0.8007	0.8782	1.007	1.232	1.578
313.15 K	0.6059	0.6215	0.6451	0.6782	0.7352	0.798	0.9019	1.08	1.343
318.15 K	0.5703	0.5814	0.6002	0.6279	0.6742	0.7269	0.8117	0.9531	1.153
323.15 K	0.537	0.5452	0.5604	0.5835	0.6218	0.6649	0.7349	0.8485	1.001

CCCN + CC(C)(C)O
298.15 K, 101 kPa
Details	viscosity [mPa·s]
x2 = 0.0967	0.512
x2 = 0.2039	0.727
x2 = 0.3012	0.969
x2 = 0.4	1.263
x2 = 0.4992	1.614
x2 = 0.5874	1.975
x2 = 0.6813	2.415
x2 = 0.7999	3.09
x2 = 0.9183	3.806

O=C(O)c1cc(O)c(O)c(O)c1 + CC(C)=O
viscosity [mPa·s], 101 kPa
Details	293.15 K	298.15 K	303.15 K	308.15 K	313.15 K
x1 = 0.0034	0.361	0.345	0.332	0.318	0.307
x1 = 0.0069	0.383	0.367	0.348	0.337	0.323
x1 = 0.01	0.401	0.388	0.368	0.352	0.338
x1 = 0.014	0.424	0.409	0.383	0.368	0.356

Oc1ccccc1Cl + CC(C)=O
101 kPa
Details	viscosity [mPa·s]
293.15 K, x1 = 0.09296	0.475
293.15 K, x1 = 0.1779	0.611
293.15 K, x1 = 0.3108	0.992
293.15 K, x1 = 0.4089	1.376
293.15 K, x1 = 0.5253	2.051
293.15 K, x1 = 0.6914	3.17
293.15 K, x1 = 0.8336	3.91
298.15 K, x1 = 0.101	0.442
298.15 K, x1 = 0.2004	0.644
298.15 K, x1 = 0.2997	0.857
298.15 K, x1 = 0.4006	1.217
298.15 K, x1 = 0.5	1.666
298.15 K, x1 = 0.5999	2.19
298.15 K, x1 = 0.6997	2.712
298.15 K, x1 = 0.7988	3.086
298.15 K, x1 = 0.9003	3.303
303.15 K, x1 = 0.09296	0.419
303.15 K, x1 = 0.1779	0.569
303.15 K, x1 = 0.3108	0.893
303.15 K, x1 = 0.4089	1.199
303.15 K, x1 = 0.5253	1.684
303.15 K, x1 = 0.6914	2.4
303.15 K, x1 = 0.8336	2.85
313.15 K, x1 = 0.09296	0.382
313.15 K, x1 = 0.1779	0.508
313.15 K, x1 = 0.3108	0.777
313.15 K, x1 = 0.4089	1.019
313.15 K, x1 = 0.5253	1.369
313.15 K, x1 = 0.6914	1.886
313.15 K, x1 = 0.8336	2.165
323.15 K, x1 = 0.09296	0.3515
323.15 K, x1 = 0.1779	0.465
323.15 K, x1 = 0.3108	0.687
323.15 K, x1 = 0.4089	0.893
323.15 K, x1 = 0.5253	1.154
323.15 K, x1 = 0.6914	1.527
323.15 K, x1 = 0.8336	1.735

Oc1ccccc1Cl + CC(C)CO
Details	viscosity [mPa·s]
303.15 K, 101 kPa, x1 = 0.3796	5.333

CCCCOC(C)=O + CC(C)O
viscosity [mPa·s], 100 kPa
Details	x1 = 0.081	x1 = 0.1599	x1 = 0.24	x1 = 0.35	x1 = 0.44	x1 = 0.5601	x1 = 0.65	x1 = 0.74	x1 = 0.85	x1 = 0.9397
293.15 K	1.638	1.156	0.884	0.725	0.688	0.674	0.686	0.686	0.703	0.717
298.15 K	1.439	1.038	0.812	0.684	0.652	0.648	0.652	0.652	0.665	0.673
303.15 K	1.256	0.924	0.747	0.643	0.608	0.601	0.608	0.616	0.629	0.632
308.15 K	1.119	0.847	0.687	0.592	0.56	0.557	0.564	0.564	0.582	0.584
313.15 K	0.972	0.74	0.613	0.536	0.516	0.516	0.522	0.525	0.531	0.543
318.15 K	0.862	0.658	0.538	0.482	0.469	0.474	0.481	0.487	0.496	0.502
323.15 K	0.759	0.574	0.469	0.431	0.428	0.436	0.443	0.451	0.457	0.461
